According to the NIST ThermoML archive (doi:10.1021/acs.jced.8b00786):

Experiment: xn = mol fraction of the nth substance listed
Details: Liquid; for viscosity: Capillary tube (Ostwald / Ubbelohde) method; for mass density: Vibrating tube method

CC(C)CCCC(C)CCCC(C)CCCCC(C)CCCC(C)CCCC(C)C (stereo not drawn) [2,6,10,15,19,23-hexamethyltetracosane] + O=C=O
Details	mass density [kg/m3]	viscosity [mPa·s]
313.15 K, 2790 kPa, x2 = 0.199	796.7	11.4
313.15 K, 3900 kPa, x2 = 0.299	799.1	9.2
313.15 K, 5300 kPa, x2 = 0.519	804.5	5.1
313.15 K, 11290 kPa, x2 = 0.519	810.3	5.59
313.15 K, 12320 kPa, x2 = 0.299	805.8	10.5
313.15 K, 12560 kPa, x2 = 0.199	804.5	13.39
313.15 K, 21910 kPa, x2 = 0.519	819.7	6.47
313.15 K, 23100 kPa, x2 = 0.299	813.6	12.46
313.15 K, 23440 kPa, x2 = 0.199	812.5	16.14
313.15 K, 42900 kPa, x2 = 0.519	836.1	8.58
313.15 K, 44510 kPa, x2 = 0.299	828.1	17.08
313.15 K, 45240 kPa, x2 = 0.199	826.3	22.88
313.15 K, 57150 kPa, x2 = 0.519	846	10.52
313.15 K, 58570 kPa, x2 = 0.299	836.5	21.56
313.15 K, 60140 kPa, x2 = 0.199	834.5	28.7
313.15 K, 71140 kPa, x2 = 0.519	854.8	12.5
313.15 K, 73410 kPa, x2 = 0.299	844.9	26.51
313.15 K, 74430 kPa, x2 = 0.199	841.6	35.87
338.15 K, 3100 kPa, x2 = 0.199	780.2	5.61
338.15 K, 3320 kPa, x2 = 0.299	782.1	4.69
338.15 K, 6440 kPa, x2 = 0.519	787.1	2.96
338.15 K, 10860 kPa, x2 = 0.519	791.5	3.18
338.15 K, 11180 kPa, x2 = 0.299	788.3	5.36
338.15 K, 11690 kPa, x2 = 0.199	787.3	6.41
338.15 K, 21260 kPa, x2 = 0.519	801	3.58
338.15 K, 21990 kPa, x2 = 0.199	795.1	7.61
338.15 K, 21990 kPa, x2 = 0.299	796.2	6.16
338.15 K, 42140 kPa, x2 = 0.519	817.7	4.78
338.15 K, 42690 kPa, x2 = 0.299	810.4	8.3
338.15 K, 42870 kPa, x2 = 0.199	808.7	10.48
338.15 K, 56660 kPa, x2 = 0.519	827.7	5.67
338.15 K, 57330 kPa, x2 = 0.299	819.2	10.09
338.15 K, 57570 kPa, x2 = 0.199	817.1	12.79
338.15 K, 69970 kPa, x2 = 0.199	823.5	15.43
338.15 K, 70400 kPa, x2 = 0.519	836.4	6.59
338.15 K, 71030 kPa, x2 = 0.299	826.9	12.17
363.15 K, 2670 kPa, x2 = 0.199	763.2	3.2
363.15 K, 3820 kPa, x2 = 0.299	766.2	2.86
363.15 K, 7280 kPa, x2 = 0.519	769.5	1.93
363.15 K, 10740 kPa, x2 = 0.519	772.7	2.06
363.15 K, 10840 kPa, x2 = 0.299	771.7	3.14
363.15 K, 11090 kPa, x2 = 0.199	770.2	3.71
363.15 K, 21180 kPa, x2 = 0.299	779.2	3.59
363.15 K, 21340 kPa, x2 = 0.519	782.5	2.31
363.15 K, 21420 kPa, x2 = 0.199	778.2	4.33
363.15 K, 42180 kPa, x2 = 0.519	799.3	3
363.15 K, 42250 kPa, x2 = 0.299	793.2	4.8
363.15 K, 42490 kPa, x2 = 0.199	792.2	5.75
363.15 K, 56170 kPa, x2 = 0.519	809.2	3.43
363.15 K, 56390 kPa, x2 = 0.299	801.8	5.69
363.15 K, 56730 kPa, x2 = 0.199	800.5	6.83
363.15 K, 70120 kPa, x2 = 0.519	818	4.08
363.15 K, 70320 kPa, x2 = 0.299	809.6	6.81
363.15 K, 70780 kPa, x2 = 0.199	807.9	8.08
